# Counter-ions that a name gives are not always drawn.
# Molecular target: T1, N-terminal 6His-tagged ROCK2 catalytic domain 11-552 (Homo sapiens, UniProt O75116)
# T1 construct: N-terminal 6His-tagged ROCK2 catalytic domain 11-552; 6His (N); purchased Dundee University, UK; host or cells: baculovirus expression system
# Assay: ROCK2 binding activity: ROCK2 inhibition, ADP-Glo Kinase Assay
# Format: biochemical
# Details: 1.25 nM ROCK2, 100 μM long S6 peptide, 20 μM ATP; 1 hour pre-incubation; read-out: ADP-Glo kinase activity assay ROCK2 Category
# Protocol: Assay for ROCK2 inhibition was performed using the protein construct N-terminal 6His-tagged ROCK2 catalytic domain 11-552 (Dundee University, UK). Protein was purified from a baculovirus expression system. Long S6 peptide ([…]) was used as substrate. Kinase reactions were carried out in 15 μl volume in a 96-well plate (black, half area) using 1.25 nM constitutively active ROCK2 kinase, 100 μM long S6 peptide, 20 μM ATP and test compound in DMSO (or DMSO only for controls). The final concentration of DMSO was 1%. Assay buffer was 50 mM HEPES pH 7.5 supplemented with 0.2 mM EDTA, 10 mM magnesium acetate, 0.01% Tween-20, 1 mM DTT and 0.01% BSA. Test compounds were pre-incubated with ROCK2 kinase for 1 hour before addition of ATP and long S6 peptide. After incubation for a further 1 hour, the amount of ADP produced was measured using ADP-Glo Kinase Assay (Promega) as per manufacturer's instructions. The luminescence was measured on a PHERAstar FS (BMG Labtech). The concentration of test compound required to inhibit ADP production by 50% (the IC50) was calculated using a four-parameter logistic function with software by Dotmatics.
# The category “+” refers to compounds with a ROCK2 IC50 value of >10 μM. The category “++” refers to compounds with a ROCK2 IC50 value of 10 to 3 μM. The category “+++” refers to compounds with a ROCK2 IC50 value of 3 to 0.3 μM. The category “++++” refers to compounds with a ROCK2 IC50 value of <0.3 μM.
# T1 sequence (O75116 11-552): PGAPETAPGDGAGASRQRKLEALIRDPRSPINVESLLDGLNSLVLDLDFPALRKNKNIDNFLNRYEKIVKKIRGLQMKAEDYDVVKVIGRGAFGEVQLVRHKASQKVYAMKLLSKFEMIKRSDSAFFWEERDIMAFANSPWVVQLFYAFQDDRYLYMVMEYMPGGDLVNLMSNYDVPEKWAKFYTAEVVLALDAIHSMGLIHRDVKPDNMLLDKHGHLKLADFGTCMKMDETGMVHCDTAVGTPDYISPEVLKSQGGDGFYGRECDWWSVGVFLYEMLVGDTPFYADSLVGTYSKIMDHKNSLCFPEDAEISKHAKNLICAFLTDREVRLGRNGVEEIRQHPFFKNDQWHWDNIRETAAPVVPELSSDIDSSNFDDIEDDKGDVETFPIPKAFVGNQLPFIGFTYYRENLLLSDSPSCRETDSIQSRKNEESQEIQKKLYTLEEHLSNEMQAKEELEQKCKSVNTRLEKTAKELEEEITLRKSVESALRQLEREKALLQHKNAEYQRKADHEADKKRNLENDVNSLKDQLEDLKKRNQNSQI
row,SMILES,IC50 [µM]
1,"COc1ccc(-c2nnc(Nc3ccc4[nH]ncc4c3)[nH]2)cc1 [Example 1, N-[5-(4-Methoxyphenyl)-4H-1,2,4-triazol-3-yl]-1H-indazol-5-amine dihydrochloride]",0.3 to 3
2,COc1cccc(-c2nnc(Nc3ccc4[nH]ncc4c3)[nH]2)c1 [Example 2],0.3 to 3
3,COc1cc(OC)cc(-c2nnc(Nc3ccc4[nH]ncc4c3)[nH]2)c1 [Example 3],0.3 to 3
4,COc1ccccc1-c1nnc(Nc2ccc3[nH]ncc3c2)[nH]1 [Example 4],> 10
5,COc1ccc(-c2nnc(Nc3ccc4[nH]nc(C)c4c3)[nH]2)cc1 [Example 5],3 to 10
6,CC(C)NC(=O)COc1cccc(-c2nnc(Nc3ccc4[nH]ncc4c3)[nH]2)c1 [Example 6],< 0.3
7,CC(C)NC(=O)COc1ccc(-c2nnc(Nc3ccc4[nH]ncc4c3)[nH]2)cc1 [Example 7],< 0.3
8,COc1cc(-c2nnc(Nc3ccc4[nH]ncc4c3)[nH]2)ccc1OCC(=O)NC(C)C [Example 8],< 0.3
9,CNC(=O)COc1ccc(-c2nnc(Nc3ccc4[nH]ncc4c3)[nH]2)cc1OC [Example 9],0.3 to 3
10,Cc1cc(-c2nnc(Nc3ccc4[nH]ncc4c3)[nH]2)ccc1OCC(=O)NC(C)C [Example 10],< 0.3
11,"CC(C)NC(=O)COc1ccc(-c2nc(Nc3ccc4[nH]ncc4c3)n[nH]2)cc1F [Example 12, 2-[2-fluoro-4-[5-(1H-indazol-5-ylamino)-4H-1,2,4-triazol-3-yl]phenoxy]-N-isopropyl-acetamide]",< 0.3
12,c1ccc(COc2ccc(-c3nnc(Nc4ccc5[nH]ncc5c4)[nH]3)cc2)cc1 [Example 13],0.3 to 3
13,CC(C)NC(=O)COc1ccc(-c2nnc(Nc3ccc4[nH]ncc4c3)[nH]2)cc1C#N [Example 14],< 0.3
14,CC(C)NC(=O)COc1ccc(-c2nnc(Nc3ccc4[nH]ncc4c3)[nH]2)cc1CN [Example 15],0.3 to 3
15,CC(C)NC(=O)Cn1cc(-c2nnc(Nc3ccc4[nH]ncc4c3)[nH]2)ccc1=O [Example 16],0.3 to 3
16,COC(=O)COc1ccc(-c2nnc(Nc3ccc4[nH]ncc4c3)[nH]2)cc1 [Example 17],< 0.3
17,CC(C)NC(=O)C(C)Oc1ccc(-c2nnc(Nc3ccc4[nH]ncc4c3)[nH]2)cc1 (stereo not drawn) [Example 18],0.3 to 3
18,CC(C)NC(=O)C(C)(C)Oc1ccc(-c2nnc(Nc3ccc4[nH]ncc4c3)[nH]2)cc1 [Example 19],0.3 to 3
19,CC(C)NC(=O)CCc1ccc(-c2nnc(Nc3ccc4[nH]ncc4c3)[nH]2)cc1 [Example 20],0.3 to 3
20,CC(C)NC(=O)CCOc1ccc(-c2nnc(Nc3ccc4[nH]ncc4c3)[nH]2)cc1 [Example 21],0.3 to 3
21,NCCCOc1ccc(-c2nnc(Nc3ccc4[nH]ncc4c3)[nH]2)cc1 [Example 22],0.3 to 3
22,CC(C)C(=O)NCCOc1ccc(-c2nnc(Nc3ccc4[nH]ncc4c3)[nH]2)cc1 [Example 23],0.3 to 3
23,NCCOc1ccc(-c2nnc(Nc3ccc4[nH]ncc4c3)[nH]2)cc1 [Example 24],0.3 to 3

row,SMILES,IC50 [µM]
1,CC(C)NC(=O)COc1ccc(-c2nnc(Nc3ccc4[nH]ncc4c3)[nH]2)c(F)c1 [Example 25],0.3 to 3
2,Cc1cc(OCC(=O)NC(C)C)ccc1-c1nnc(Nc2ccc3[nH]ncc3c2)[nH]1 [Example 26],< 0.3
3,COc1cc(OCC(=O)NC(C)C)ccc1-c1nnc(Nc2ccc3[nH]ncc3c2)[nH]1 [Example 27],0.3 to 3
4,CC(C)NC(=O)Cn1ccc(-c2nnc(Nc3ccc4[nH]ncc4c3)[nH]2)cc1=O [Example 28],3 to 10
5,CC(C)NC(=O)COc1ccc(-c2nnc(Nc3ccc4[nH]ncc4c3)[nH]2)cn1 [Example 29],0.3 to 3
6,CC(C)NC(=O)COc1ccc(-c2nnc(Nc3ccc4[nH]ncc4c3Cl)[nH]2)cc1 [Example 30],< 0.3
7,O=C(O)COc1ccc(-c2nnc(Nc3ccc4[nH]ncc4c3)[nH]2)cc1 [Example 31],0.3 to 3
8,CC(C)C(=O)NCCCOc1ccc(-c2nnc(Nc3ccc4[nH]ncc4c3)[nH]2)cc1 [Example 32],< 0.3
9,CC(C)NC(=O)CCn1ccc(-c2nnc(Nc3ccc4[nH]ncc4c3)[nH]2)cc1=O [Example 33],> 10
10,CC(C)NC(=O)OCc1ccc(-c2nnc(Nc3ccc4[nH]ncc4c3)[nH]2)cc1 [Example 34],< 0.3
11,CC(C)NC(=O)CCn1cc(-c2nnc(Nc3ccc4[nH]ncc4c3)[nH]2)ccc1=O [Example 35],0.3 to 3
12,CC(C)NC(=O)COc1c(F)cc(-c2nnc(Nc3ccc4[nH]ncc4c3)[nH]2)cc1F [Example 36],0.3 to 3
13,CS(=O)(=O)NC(=O)COc1ccc(-c2nnc(Nc3ccc4[nH]ncc4c3)[nH]2)cc1 [Example 37],0.3 to 3
14,CC(C)NC(=O)COc1ccc(-c2nnc(Nc3ccc4[nH]ncc4c3)[nH]2)cc1Cl [Example 38],< 0.3
15,Oc1ccc(-c2nnc(Nc3ccc4[nH]ncc4c3)[nH]2)cc1 [Example 39],0.3 to 3
16,COc1cc(-c2nnc(Nc3ccc4[nH]ncc4c3)[nH]2)ccc1OCc1nnc(C)o1 [Example 40],0.3 to 3
17,CC(C)NC(=O)NCc1ccc(-c2nnc(Nc3ccc4[nH]ncc4c3)[nH]2)cc1 [Example 41],3 to 10
18,CCc1cc(-c2nnc(Nc3ccc4[nH]ncc4c3)[nH]2)ccc1OCC(=O)NC(C)C [Example 42],< 0.3
19,"CCNC(=O)c1ccc(-c2nc(Nc3ccc4[nH]ncc4c3Cl)n(C)n2)cc1F [Example 43, 4-[5-[(4-chloro-1H-indazol-5-yl)amino]-1-methyl-1,2,4-triazol-3-yl]-N-ethyl-2-fluoro-benzamide]",< 0.3
20,COc1cc(-c2nc(Nc3ccc4[nH]ncc4c3)n(C)n2)ccc1OCC(=O)NC1CNC1 [Example 45],< 0.3
21,COc1cc(-c2nc(N(C)c3ccc4[nH]ncc4c3)n(C)n2)ccc1OCC(=O)NC(C)C [Example 46],> 10
22,CN1CCc2cc(-c3nc(Nc4ccc5[nH]ncc5c4)n(C)n3)ccc2C1=O [Example 47],< 0.3
23,COc1cc(-c2nc(Nc3ccc4[nH]ncc4c3Cl)n(C)n2)ccc1OCC(=O)NC1CNC1 [Example 48],< 0.3

row,SMILES,IC50 [µM]
1,COc1cc(-c2nc(Nc3ccc4[nH]ncc4c3Cl)n(C)n2)ccc1OCC(=O)NC1CCNC1 (stereo not drawn) [Example 49],< 0.3
2,COc1cc(-c2nc(Nc3ccc4[nH]ncc4c3Cl)n(C)n2)ccc1OCC(=O)NC1(CO)CCCC1 [Example 50],< 0.3
3,COc1cc(-c2nc(Nc3ccc4[nH]ncc4c3Cl)n(C)n2)ccc1OCC(=O)NC1CCOC1 (stereo not drawn) [Example 51],< 0.3
4,CC(C)NC(=O)COc1ccc(-c2nc(Nc3ccc4[nH]ncc4c3Cl)n(C)n2)cc1N1CCOCC1 [Example 52],0.3 to 3
5,CC(C)NC(=O)N1CCc2cc(-c3nc(Nc4ccc5[nH]ncc5c4Cl)n(C)n3)ccc2C1 [Example 54],< 0.3
6,COC(=O)c1ccc(-c2nc(Nc3ccc4[nH]ncc4c3Cl)n(C)n2)cc1 [Example 56],< 0.3
7,CNC(=O)Cc1ccc(-c2nc(Nc3ccc4[nH]ncc4c3Cl)n(C)n2)cc1OC [Example 57],0.3 to 3
8,CC(C)NC(=O)CN1CCOc2cc(-c3nc(Nc4ccc5[nH]ncc5c4Cl)n(C)n3)ccc21 [Example 58],< 0.3
9,Cn1nc(-c2cnn(Cc3ccccc3)c2)nc1Nc1ccc2[nH]ncc2c1Cl [Example 60],0.3 to 3
10,Cn1nc(-c2ccc(C(=O)N3CCOCC3)cc2)nc1Nc1ccc2[nH]ncc2c1Cl [Example 61],0.3 to 3
11,CNC(=O)c1ccc(-c2nc(Nc3ccc4[nH]ncc4c3Cl)n(C)n2)cc1 [Example 62],< 0.3
12,COCc1ccc(-c2nc(Nc3ccc4[nH]ncc4c3Cl)n(C)n2)cc1 [Example 63],< 0.3
13,COc1cc(-c2nc(Nc3ccc4[nH]ncc4c3Cl)n(C)n2)ccc1OCC(=O)NCCN(C)C [Example 64],< 0.3
14,Cn1nc(-c2ccc3c(c2)OCCC3=O)nc1Nc1ccc2[nH]ncc2c1Cl [Example 66],< 0.3
15,COc1cc(-c2nc(Nc3ccc4[nH]ncc4c3Cl)n(C)n2)ccc1OCC(=O)NC(C)C [Example 68],< 0.3
16,Cn1nc(-c2cccc(N3CCOCC3)c2)nc1Nc1ccc2[nH]ncc2c1Cl [Example 69],< 0.3
17,Cn1nc(-c2ccc(N)nc2)nc1Nc1ccc2[nH]ncc2c1Cl [Example 70],0.3 to 3
18,CNC(=O)Nc1ccc(-c2nc(Nc3ccc4[nH]ncc4c3Cl)n(C)n2)cc1OC [Example 71],< 0.3
19,Cn1nc(-c2ccc3c(c2)OCCO3)nc1Nc1ccc2[nH]ncc2c1Cl [Example 72],0.3 to 3
20,CC(=O)NCc1ccc(-c2nc(Nc3ccc4[nH]ncc4c3Cl)n(C)n2)cc1 [Example 73],0.3 to 3
21,Cn1nc(-c2cccc(CNS(C)(=O)=O)c2)nc1Nc1ccc2[nH]ncc2c1Cl [Example 75],< 0.3
22,Cn1nc(-c2cncnc2)nc1Nc1ccc2[nH]ncc2c1Cl [Example 76],0.3 to 3
23,COc1ccc(-c2nc(Nc3ccc4[nH]ncc4c3Cl)n(C)n2)cc1OC [Example 77],< 0.3

# From patent publication US11497751B2, “Modulators of Rho-associated protein kinase” (Redx Pharma PLC, priority 2018, dated 2022)
